Tests used:
C-peptide = experiment: Phase I/II trial in new onset T1D: C-peptide by 2-h MMTT; type: in vivo, human; conditions: for C-peptide area under the curve values compared to the placebo group: 6-month post-randomization visit
Method: This study was double-blind, placebo-controlled, 2:1 random assigned, phase I/II clinic trial for individuals with type 1 diabetes. The blinded dose-ranging study enrolled persons with new onset T1D with documented continued residual C-peptide production. […] After a 3 month wash-out period, the durability of effect was assessed. [table]

[1] = tested on: APC-dependent intestinal tumorigenesis; conditions: mice; cited from earlier work
islet replication = conditions: in vitro; cited from earlier work
[2] = Phase I/II trial in new onset T1D: adverse events judged possibly or probably related to drug; type: in vivo, human; conditions: for Adverse events possibly or probably related to drug: Abdominal Pain / Adverse events possibly or probably related to drug: Congestion / Adverse events possibly or probably related to drug: Cough / Adverse events possibly or probably related to drug: Diarrhea / Adverse events possibly or probably related to drug: Dizziness / Adverse events possibly or probably related to drug: Gastrointestinal (Total) / Adverse events possibly or probably related to drug: Hematologic, Anemia / Adverse events possibly or probably related to drug: Hot flashes associated with viral illness / Adverse events possibly or probably related to drug: Nausea / Adverse events possibly or probably related to drug: Nausea with IV placement / Adverse events possibly or probably related to drug: Neurologic, Headache / Adverse events possibly or probably related to drug: Other Viral Illness / Adverse events possibly or probably related to drug: Other infectious/immune, Pump site infection / Adverse events possibly or probably related to drug: Other, Hypoglycemia / Adverse events possibly or probably related to drug: Other, Urticaria/anaphylaxis / Adverse events possibly or probably related to drug: URI / Adverse events possibly or probably related to drug: Vomiting / Adverse events possibly or probably related to drug: Hematologic, Grade 1 Neutropenia: daily oral; for Adverse events possibly or probably related to drug: Hematologic, Grade 1 Neutropenia: neutrophil count < lower limit of normal but above 1500/mm^3
Source text: The primary efficacy measure was changes in pro-insulin to C-peptide ratios as a marker of β cell ER stress. The secondary objectives of the study were to elucidate the relationship between primary dose and markers of endoplasmic reticulum (ER) stress, polyamine concentrations, glycemic, and immunologic outcomes in persons with new onset T1D, and to characterize the dietary polyamine intake and urinary polyamine excretion of persons with recent-onset T1D. Secondary efficacy measures included other biomarkers of β cell stress, stimulated C-peptide values, and changes in T-cell subsets. This study was double-blind, placebo-controlled, 2:1 random assigned, phase I/II clinic trial for individuals with type 1 diabetes. The blinded dose-ranging study enrolled persons with new onset T1D with documented continued residual C-peptide production. […] After a 3 month wash-out period, the durability of effect was assessed. […] Males and females 12-40 years of age with a clinical diagnosis of T1D within 2-8 months of the time of visit 2; 2. […] Positive for any one of the following diabetes-related autoantibodies (mIAA, GADA, IA-2A, or ZnT8A); 4. Treatment naïve of any immunomodulatory agent; 5. […] Presence of any psychiatric disorder that will affect ability to participate in study, including psychiatric impairment or current use of anti-psychotic medication; 3. […] Chronic illness known to affect glucose metabolism (e.g. Cushing syndrome, polycystic ovarian disorder, cystic fibrosis) or taking medications that affect glucose metabolism (e.g. steroids, metformin); 5. Inability to swallow pills; 6. Hematologic abnormalities at screening (anemia, leukopenia (particularly neutropenia), or thrombocytopenia); 7. […] Female participants of child-bearing age must not be pregnant and agree to use an effective form of birth control or be abstinent during the study period; 9. BMI >95% for age and sex. […] The enrollment cohorts were as follows: […] [table] […] Possible drug-related expected AEs included mild-moderate nausea/vomiting/abdominal pain and diarrhea, moderate headache, upper respiratory infections, a pump site infection, and mild anemia. […] Adverse events judges by masked study investigators as possibly or probably related to drug are showing in Table 3.

β cell function = conditions: mouse models including the NOD mouse; cited from earlier work

NCCCC(N)(C(=O)O)C(F)F (stereo not drawn) [eflornithine, 2,5-diamino-2-(difluoromethyl) pentanoic acid]
C-peptide area under the curve values compared to the placebo group (C-peptide; 750 mg/m^2 dose): significantly higher
C-peptide area under the curve values compared to the placebo group (C-peptide; 1000 mg/m^2 dose): significantly higher
β cell function compared to placebo (C-peptide; at higher doses, 3-month oral course): greater β cell function compared to placebo
APC-dependent intestinal tumorigenesis [1]: decrease APC-dependent intestinal tumorigenesis
Effect on islet replication (islet replication): little effect on islet replication
Adverse events possibly or probably related to drug: Abdominal Pain ([2]; 125 mg/m^2 (n = 6)): 1
Adverse events possibly or probably related to drug: Congestion ([2]; 125 mg/m^2 (n = 6)): 0
Adverse events possibly or probably related to drug: Cough ([2]; 125 mg/m^2 (n = 6)): 0
Adverse events possibly or probably related to drug: Diarrhea ([2]; 125 mg/m^2 (n = 6)): 0
Adverse events possibly or probably related to drug: Dizziness ([2]; 125 mg/m^2 (n = 6)): 0
Adverse events possibly or probably related to drug: Gastrointestinal (Total) ([2]; 125 mg/m^2 (n = 6)): 1
Adverse events possibly or probably related to drug: Hematologic, Anemia ([2]; 125 mg/m^2 (n = 6)): 0
Adverse events possibly or probably related to drug: Hot flashes associated with viral illness ([2]; 125 mg/m^2 (n = 6)): 0
Adverse events possibly or probably related to drug: Nausea ([2]; 125 mg/m^2 (n = 6)): 0
Adverse events possibly or probably related to drug: Nausea with IV placement ([2]; 125 mg/m^2 (n = 6)): 0
Adverse events possibly or probably related to drug: Neurologic, Headache ([2]; 125 mg/m^2 (n = 6)): 1
Adverse events possibly or probably related to drug: Other Viral Illness ([2]; 125 mg/m^2 (n = 6)): 0
Adverse events possibly or probably related to drug: Other infectious/immune, Pump site infection ([2]; 125 mg/m^2 (n = 6)): 0
Adverse events possibly or probably related to drug: Other, Hypoglycemia ([2]; 125 mg/m^2 (n = 6)): 0
Adverse events possibly or probably related to drug: Other, Urticaria/anaphylaxis ([2]; 125 mg/m^2 (n = 6)): 0
Adverse events possibly or probably related to drug: URI ([2]; 125 mg/m^2 (n = 6)): 0
Adverse events possibly or probably related to drug: Vomiting ([2]; 125 mg/m^2 (n = 6)): 1
Adverse events possibly or probably related to drug: Hematologic, Grade 1 Neutropenia ([2]; 125 mg/m^2 (n = 6)): 1
Adverse events possibly or probably related to drug: Abdominal Pain ([2]; 250 mg/m^2 (n = 6)): 0
Adverse events possibly or probably related to drug: Congestion ([2]; 250 mg/m^2 (n = 6)): 0
Adverse events possibly or probably related to drug: Cough ([2]; 250 mg/m^2 (n = 6)): 0
Adverse events possibly or probably related to drug: Diarrhea ([2]; 250 mg/m^2 (n = 6)): 1
Adverse events possibly or probably related to drug: Dizziness ([2]; 250 mg/m^2 (n = 6)): 0
Adverse events possibly or probably related to drug: Gastrointestinal (Total) ([2]; 250 mg/m^2 (n = 6)): 1
Adverse events possibly or probably related to drug: Hematologic, Anemia ([2]; 250 mg/m^2 (n = 6)): 0
Adverse events possibly or probably related to drug: Hot flashes associated with viral illness ([2]; 250 mg/m^2 (n = 6)): 0
Adverse events possibly or probably related to drug: Nausea ([2]; 250 mg/m^2 (n = 6)): 0
Adverse events possibly or probably related to drug: Nausea with IV placement ([2]; 250 mg/m^2 (n = 6)): 0
Adverse events possibly or probably related to drug: Neurologic, Headache ([2]; 250 mg/m^2 (n = 6)): 0
Adverse events possibly or probably related to drug: Other Viral Illness ([2]; 250 mg/m^2 (n = 6)): 0
Adverse events possibly or probably related to drug: Other infectious/immune, Pump site infection ([2]; 250 mg/m^2 (n = 6)): 0
Adverse events possibly or probably related to drug: Other, Hypoglycemia ([2]; 250 mg/m^2 (n = 6)): 0
Adverse events possibly or probably related to drug: Other, Urticaria/anaphylaxis ([2]; 250 mg/m^2 (n = 6)): 0
Adverse events possibly or probably related to drug: URI ([2]; 250 mg/m^2 (n = 6)): 0
Adverse events possibly or probably related to drug: Vomiting ([2]; 250 mg/m^2 (n = 6)): 0
Adverse events possibly or probably related to drug: Hematologic, Grade 1 Neutropenia ([2]; 250 mg/m^2 (n = 6)): 0
Adverse events possibly or probably related to drug: Abdominal Pain ([2]; 500 mg/m^2 (n = 6)): 0
Adverse events possibly or probably related to drug: Congestion ([2]; 500 mg/m^2 (n = 6)): 0
Adverse events possibly or probably related to drug: Cough ([2]; 500 mg/m^2 (n = 6)): 0
Adverse events possibly or probably related to drug: Diarrhea ([2]; 500 mg/m^2 (n = 6)): 0
Adverse events possibly or probably related to drug: Dizziness ([2]; 500 mg/m^2 (n = 6)): 0
Adverse events possibly or probably related to drug: Gastrointestinal (Total) ([2]; 500 mg/m^2 (n = 6)): 0
Adverse events possibly or probably related to drug: Hematologic, Anemia ([2]; 500 mg/m^2 (n = 6)): 0
Adverse events possibly or probably related to drug: Hot flashes associated with viral illness ([2]; 500 mg/m^2 (n = 6)): 0
Adverse events possibly or probably related to drug: Nausea ([2]; 500 mg/m^2 (n = 6)): 0
Adverse events possibly or probably related to drug: Nausea with IV placement ([2]; 500 mg/m^2 (n = 6)): 0
Adverse events possibly or probably related to drug: Neurologic, Headache ([2]; 500 mg/m^2 (n = 6)): 0
Adverse events possibly or probably related to drug: Other Viral Illness ([2]; 500 mg/m^2 (n = 6)): 0
Adverse events possibly or probably related to drug: Other infectious/immune, Pump site infection ([2]; 500 mg/m^2 (n = 6)): 0
Adverse events possibly or probably related to drug: Other, Hypoglycemia ([2]; 500 mg/m^2 (n = 6)): 1
Adverse events possibly or probably related to drug: Other, Urticaria/anaphylaxis ([2]; 500 mg/m^2 (n = 6)): 0
Adverse events possibly or probably related to drug: URI ([2]; 500 mg/m^2 (n = 6)): 0
Adverse events possibly or probably related to drug: Vomiting ([2]; 500 mg/m^2 (n = 6)): 0
Adverse events possibly or probably related to drug: Hematologic, Grade 1 Neutropenia ([2]; 500 mg/m^2 (n = 6)): 0
Adverse events possibly or probably related to drug: Abdominal Pain ([2]; 750 mg/m^2 (n = 7)): 2
Adverse events possibly or probably related to drug: Congestion ([2]; 750 mg/m^2 (n = 7)): 2
Adverse events possibly or probably related to drug: Cough ([2]; 750 mg/m^2 (n = 7)): 0
Adverse events possibly or probably related to drug: Diarrhea ([2]; 750 mg/m^2 (n = 7)): 0
Adverse events possibly or probably related to drug: Dizziness ([2]; 750 mg/m^2 (n = 7)): 2
Adverse events possibly or probably related to drug: Gastrointestinal (Total) ([2]; 750 mg/m^2 (n = 7)): 5
Adverse events possibly or probably related to drug: Hematologic, Anemia ([2]; 750 mg/m^2 (n = 7)): 1
Adverse events possibly or probably related to drug: Hot flashes associated with viral illness ([2]; 750 mg/m^2 (n = 7)): 0
Adverse events possibly or probably related to drug: Nausea ([2]; 750 mg/m^2 (n = 7)): 3
Adverse events possibly or probably related to drug: Nausea with IV placement ([2]; 750 mg/m^2 (n = 7)): 1
Adverse events possibly or probably related to drug: Neurologic, Headache ([2]; 750 mg/m^2 (n = 7)): 0
Adverse events possibly or probably related to drug: Other Viral Illness ([2]; 750 mg/m^2 (n = 7)): 1
Adverse events possibly or probably related to drug: Other infectious/immune, Pump site infection ([2]; 750 mg/m^2 (n = 7)): 0
Adverse events possibly or probably related to drug: Other, Hypoglycemia ([2]; 750 mg/m^2 (n = 7)): 0
Adverse events possibly or probably related to drug: Other, Urticaria/anaphylaxis ([2]; 750 mg/m^2 (n = 7)): 1
Adverse events possibly or probably related to drug: URI ([2]; 750 mg/m^2 (n = 7)): 2
Adverse events possibly or probably related to drug: Vomiting ([2]; 750 mg/m^2 (n = 7)): 0
Adverse events possibly or probably related to drug: Hematologic, Grade 1 Neutropenia ([2]; 750 mg/m^2 (n = 7)): 0
Adverse events possibly or probably related to drug: Abdominal Pain ([2]; 1000 mg/m^2 (n = 6)): 1
Adverse events possibly or probably related to drug: Congestion ([2]; 1000 mg/m^2 (n = 6)): 1
Adverse events possibly or probably related to drug: Cough ([2]; 1000 mg/m^2 (n = 6)): 1
Adverse events possibly or probably related to drug: Diarrhea ([2]; 1000 mg/m^2 (n = 6)): 0
Adverse events possibly or probably related to drug: Dizziness ([2]; 1000 mg/m^2 (n = 6)): 0
Adverse events possibly or probably related to drug: Gastrointestinal (Total) ([2]; 1000 mg/m^2 (n = 6)): 2
Adverse events possibly or probably related to drug: Hematologic, Anemia ([2]; 1000 mg/m^2 (n = 6)): 2
Adverse events possibly or probably related to drug: Hot flashes associated with viral illness ([2]; 1000 mg/m^2 (n = 6)): 1
Adverse events possibly or probably related to drug: Nausea ([2]; 1000 mg/m^2 (n = 6)): 1
Adverse events possibly or probably related to drug: Nausea with IV placement ([2]; 1000 mg/m^2 (n = 6)): 0
Adverse events possibly or probably related to drug: Neurologic, Headache ([2]; 1000 mg/m^2 (n = 6)): 2
Adverse events possibly or probably related to drug: Other Viral Illness ([2]; 1000 mg/m^2 (n = 6)): 0
Adverse events possibly or probably related to drug: Other infectious/immune, Pump site infection ([2]; 1000 mg/m^2 (n = 6)): 1
Adverse events possibly or probably related to drug: Other, Hypoglycemia ([2]; 1000 mg/m^2 (n = 6)): 0
Adverse events possibly or probably related to drug: Other, Urticaria/anaphylaxis ([2]; 1000 mg/m^2 (n = 6)): 0
Adverse events possibly or probably related to drug: URI ([2]; 1000 mg/m^2 (n = 6)): 2
Adverse events possibly or probably related to drug: Vomiting ([2]; 1000 mg/m^2 (n = 6)): 0
Adverse events possibly or probably related to drug: Hematologic, Grade 1 Neutropenia ([2]; 1000 mg/m^2 (n = 6)): 0
Tolerability ([2]; 3-month course of oral eflornithine, children and adults with recent-onset T1D): well tolerated with a favorable AE profile
Severity of adverse events noted ([2]; daily oral doses of 125, 250, 500, 750, and 1000 mg/m^2, drug or placebo): Mild and moderate AEs
Unexpected drug-related effects ([2]; individuals on active drug, daily oral doses of 125, 250, 500, 750, and 1000 mg/m^2): No unexpected effects judged related to drug
β cell function and diabetes onset (β cell function): preserves β cell function and delays diabetes onset
